Reference: patent US8993585B2, “Cyclic amine substituted pyrimidinediamines as PKC inhibitors” (Rigel Pharmaceuticals, Inc., priority 2007, dated 2015)

These compounds were tested on Human primary T cells (assay: IL-2 ELISA, Human Primary T Cell, Anti-CD3+CD28+ (Example 3)). Conditions: Homo sapiens, T-cell, 24 h, anti-CD3+CD28 stimulation.
Format: cell-based
Description: Human primary T cell isolation and culture: Human primary T cells were prepared as follows. […] The cells at the serum:ficoll interface were recovered and washed twice with 5 volumes of PBS. […] The primary T-cells were then washed twice with PBS to remove the IL-2.
Primary T cell stimulation and IL2 ELISA: Human primary T cells (100,000 cells per well) were pre-incubated with or without test compound in Yssel's medium for 1 hr at 37° C. Cells were then stimulated by transferring them to round-bottom 96-well plates pre-coated with 1 ug/ml αCD3 and 5 μg/ml αCD28. For counter assay, cells were instead stimulated by adding 8× stock solutions of PMA and ionomycin in Yssels (for final concentrations of 0.5 ng/ml PMA and 0.1 uM ionomycin, both from Calbiochem).

IC50 [µM] | SMILES
0.567 | CN1C(C)(C)CC(Nc2nc(Nc3ccc4c(c3)OC(C)(C)C(=O)N4CCCF)ncc2C#N)CC1(C)C [II-81]
5.93 | C#Cc1cnc(Nc2ccc3c(c2)OCCO3)nc1NC1CC(C)(C)N(C)C(C)(C)C1 [II-156]
5.95 | COc1ccc(Nc2ncc(F)c(N(Cc3ccc4ccccc4n3)C3CC(C)(C)N(C)C(C)(C)C3)n2)cc1OC(F)F [Compound I-321]
1.35 | CC1(C)CC(Nc2nc(Nc3ccc4c(c3)OC3(CCCC3)O4)ncc2F)CC(C)(C)N1 [II-120]
10.5 | Cc1ccc(Nc2ncc(F)c(NC3CC(C)(C)N(CCC(=O)O)C(C)(C)C3)n2)cc1C#N [Compound I-306]
0.152 | CN1C(C)(C)CC(Nc2nc(Nc3ccc4c(c3)OC(C)(C)C(=O)N4CCF)ncc2C#N)CC1(C)C [II-79]
0.298 | CC(C)N1C(=O)C(C)(C)Oc2cc(Nc3ncc(F)c(NC4CC(C)(C)N(C)C(C)(C)C4)n3)ccc21 [II-44]
2.48 | CN1C(C)(C)CC(N(Cc2ccc(-c3ccccc3)cc2)c2nc(Nc3ccc4c(c3)OCCO4)ncc2F)CC1(C)C [II-88]
4.55 | COC(=O)CCN1C(C)(C)CC(Nc2nc(Nc3cc(Cl)cc(Cl)c3)ncc2F)CC1(C)C [Compound I-294]

Same assay, conditions: anti-CD3+CD28 stimulation, 24 hours

IC50 [µM] | SMILES
10.9 | Cc1ccc(Nc2ncc(F)c(NC3CCC(C)(C)N(C)C(C)(C)C3)n2)cc1C#N (stereo not shown) [Compound I-263, 5-Fluoro-N2-[4-(methyl)-3-cyano]phenyl-N4-(1,2,2,7,7-pentamethylazepan-4-yl)-2,4-pyrimidinediamine]
9.84 | Cc1cnc(Nc2cccc(S(N)(=O)=O)c2)nc1NC1CC(C)(C)N(C)C(C)(C)C1 [Compound I-14]
1.13 | CN1C(C)(C)CC(Nc2nc(Nc3ccc(NC(=O)c4ccccc4)cc3)ncc2F)CC1(C)C [Compound I-133]
0.257 | COC(=O)N1CCN(c2ccc(Nc3ncc(F)c(NC4CC(C)(C)N(C)C(C)(C)C4)n3)cc2Cl)CC1 [Compound I-62]
0.586 | CN1C(C)(C)CC(Nc2nc(Nc3ccc(F)c(Cl)c3)ncc2F)CC1(C)C [Compound I-333]
0.897 | COc1cc(Nc2ncc(F)c(NC3CC(C)(C)N(C)C(C)(C)C3)n2)cc(C(F)(F)F)c1 [Compound I-145]
1.98 | CN1CCN(c2cc(Nc3ncc(F)c(NC4CC(C)(C)N(C)C(C)(C)C4)n3)ccc2Cl)CC1 [Compound I-65]
0.261 | CN1C(=O)C2(CCC2)Oc2cc(Nc3ncc(F)c(NC4CC(C)(C)N(C)C(C)(C)C4)n3)ccc21 [II-68]
0.629 | COc1c(C)cc(Nc2ncc(F)c(NC3CC(C)(C)N(C)C(C)(C)C3)n2)cc1C [Compound I-131]
2.04 | CN1C(C)(C)CC(Nc2nc(Nc3ccc(Cl)c(Cl)c3)ncc2F)CC1(C)C [Compound I-336]
1.12 | CN1C(C)(C)CC(Nc2nc(Nc3ccc(N4CCOCC4)c(C(F)(F)F)c3)ncc2C(F)(F)F)CC1(C)C [Compound I-330]
0.624 | COc1ccc(Nc2ncc(F)c(NC3CC(C)(C)N(C)C(C)(C)C3)n2)cc1-c1cnco1 [Compound I-369]
0.18 | CSc1nnnn1-c1cccc(Nc2ncc(C#N)c(NC3CC(C)(C)N(C)C(C)(C)C3)n2)c1 [Compound I-464]
0.542 | CN1C(C)(C)CC(Nc2nc(Nc3ccc(OCCN4CCOCC4)c(Cl)c3)ncc2C#N)CC1(C)C [Compound I-373]
4.66 | COc1cc(Nc2ncc(F)c(NC3CC(C)(C)N(C)C(C)(C)C3)n2)ccc1-n1nc(C)cc1C [Compound I-361]
3.16 | COc1ccc(Nc2ncc(F)c(NC3CC(C)(C)N(C)C(C)(C)C3)n2)cc1OCC(F)(F)F [Compound I-401]
3.06 | CNC(=O)c1cc(Nc2ncc(F)c(NC3CC(C)(C)N(C)C(C)(C)C3)n2)ccc1N1CCN(C)CC1 [Compound I-54]
0.655 | CN1C(C)(C)CC(Nc2nc(Nc3ccc(N4CCN(S(C)(=O)=O)CC4)c(C#N)c3)ncc2C(F)(F)F)CC1(C)C [Compound I-176]

SMILES | IC50 [µM]
CN1C(C)(C)CC(Nc2nc(Nc3ccc4c(c3)CCC(=O)N4)ncc2F)CC1(C)C [II-2] | 1.4
